The values below come from ChEMBL document CHEMBL5034046, “Discovery of Small-Molecule CD33 Pre-mRNA Splicing Modulators” (ACS Med Chem Lett, 2022).

Series [1] in a line: Modulation of CD33 pre-mRNA splicing in human K562 cells assessed as induction of exon 2 skipping measured after 16 to 24 hrs by Nano-Luciferase counter screen assay. The format is cell-based. For orientation: The purpose of a counterscreen is to sort out artefacts and off-target activity.
Series [2] can be described thus: Modulation of CD33 pre-mRNA splicing in human K562 cells assessed as induction of exon 2 skipping measured after 18 to 24 hrs by Nano-Luciferase reporter assay. The format is cell-based.
Another series relates to K562. The series is described as follows: Modulation of CD33 pre-mRNA splicing in human K562 cells assessed as induction of exon 2 skipping at 25 uM measured after 18 to 24 hrs by Nano-Luciferase reporter assay. The format is cell-based. The settings on record: filed as modulator, time 18-24 hrs.
Series [3] can be described thus: […] level in human THP-1 cell surface at top concentration incubated for 48 to 72 hrs by high content imaging assay. The format is functional. The following applies: time 48-72 hrs.
For the next series, the system named is THP-1. The series can be described thus: Cytotoxicity against human THP-1 cells assessed as reduction in cell viability by DAPI staining based assay. The format is functional.
Series [4] is described as follows: Increase in CD11c level in human THP-1 cell surface incubated for 48 to 72 hrs by high content imaging assay. The format is functional.
Series [5] can be described thus: […] level in human THP-1 cell surface incubated for 48 to 72 hrs by high content imaging assay. The format is functional.
For series [6], the target named is Proprotein convertase subtilisin/kexin type 9 (Homo sapiens, UniProt Q8NBP7). The series is described as follows: Inhibition of PCSK9 translation in human THP-1 cells by AlphaLISA assay. The format is cell-based. (Bead proximity is the source of the signal in Alpha formats.)
The target in series [7] is 3',5'-cyclic-AMP phosphodiesterase 4D (Homo sapiens, UniProt Q08499). The series is described as follows: Inhibition of PDE4D3 (unknown origin) assessed as conversion of cAMP to AMP measured after 30 mins by YSi scintillation proximity assay. For orientation: In a scintillation proximity assay essentially only radioactivity close to the scintillant gives light.
The target of series [8] is T1, Voltage-gated inwardly rectifying potassium channel KCNH2 (Homo sapiens, UniProt Q12809). The series is described as follows: Displacement of [3H]-dofetilide from human ERG.
Series [9] is described as follows: Solubility of compound at pH 7.4. The format is physicochemical. The following applies: buffer.
Series [10] in a line: Inhibition of PDE3A1 (unknown origin) assessed as conversion of cAMP to AMP measured after 30 mins by YSi scintillation proximity assay. More on the design: species or system Homo sapiens.
Series [11] deals with Sodium-dependent noradrenaline transporter (Homo sapiens) (UniProt P23975). The series can be described thus: Inhibition of norepinephrine transporter (unknown origin) expressed in cells incubated for 60 mins by amine transporter assay. The format is cell-based.
Series [12] has as its target Bromodomain-containing protein 4 (Homo sapiens, UniProt O60885). The series is described as follows: Inhibition of His-tagged BRD4 (unknown origin) using tetra-acetylated histone H4 peptide as substrate by fluorescent polarization binding assay.
The target of another series is Cannabinoid receptor 1 (Homo sapiens, UniProt P21554). The series is described as follows: Agonist activity at cannabinoid receptor 1 (unknown origin) expressed in cells measured after 90 mins by beta-arrestin recruitment assay. The format is functional, cell-based.
A short description of series [13]: Distribution coefficient, logD of compound at pH 7.4 by shake flask method. The format is physicochemical. The settings on record: octanol/water.
The target in series [14] is T2, Muscarinic acetylcholine receptor M1 (Homo sapiens, UniProt P11229).
T2 sequence (P11229 whole entry): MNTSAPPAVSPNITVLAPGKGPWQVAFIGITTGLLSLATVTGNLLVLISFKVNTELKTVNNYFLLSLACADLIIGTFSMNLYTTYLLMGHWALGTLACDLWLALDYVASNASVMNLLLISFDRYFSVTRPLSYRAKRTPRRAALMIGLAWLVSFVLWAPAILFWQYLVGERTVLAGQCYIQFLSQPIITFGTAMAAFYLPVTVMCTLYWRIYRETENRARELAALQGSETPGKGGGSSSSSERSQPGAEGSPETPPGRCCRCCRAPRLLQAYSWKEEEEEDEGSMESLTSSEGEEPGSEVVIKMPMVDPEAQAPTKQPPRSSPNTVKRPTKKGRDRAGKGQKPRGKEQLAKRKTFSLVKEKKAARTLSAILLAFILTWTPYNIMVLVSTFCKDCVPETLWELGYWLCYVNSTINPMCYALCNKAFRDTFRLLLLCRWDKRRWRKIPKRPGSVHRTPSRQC
The series is described as follows: Antagonist activity at muscarinic M1 receptor (unknown origin) expressed in cells assessed as change in fluorescence measured after 24 hrs by FLIPR assay. The format is functional, cell-based.

A short description of series [15]: Apparent permeability in MDCK cells. The format is ADME, cell-based, Canis lupus familiaris. The following applies: dog.
The next series concerns the target Histamine H1 receptor (Homo sapiens, UniProt P35367). The series can be described thus: Agonist activity at histamine H1 receptor (unknown origin) expressed in cells assessed as change in fluorescence measured after 24 hrs by FLIPR assay. The format is functional, cell-based.
The target of series [16] is Sodium-dependent serotonin transporter (Homo sapiens) (UniProt P31645). The series can be described thus: Inhibition of serotonin transporter (unknown origin) expressed in cells incubated for 30 mins by amine transporter assay. The format is cell-based.
The target in series [17] is T1, Voltage-gated inwardly rectifying potassium channel KCNH2. The series is described as follows: Inhibition of human ERG.
In series [18] the target is cGMP-specific 3',5'-cyclic phosphodiesterase (Homo sapiens, UniProt O76074). The series is described as follows: Inhibition of PDE5A1 (unknown origin) assessed as conversion of cAMP to AMP measured after 30 mins by YSi scintillation proximity assay.
Series [19] concerns the target T3, Alpha-1A adrenergic receptor (Homo sapiens, UniProt P35348).
T3 sequence (P35348 whole entry): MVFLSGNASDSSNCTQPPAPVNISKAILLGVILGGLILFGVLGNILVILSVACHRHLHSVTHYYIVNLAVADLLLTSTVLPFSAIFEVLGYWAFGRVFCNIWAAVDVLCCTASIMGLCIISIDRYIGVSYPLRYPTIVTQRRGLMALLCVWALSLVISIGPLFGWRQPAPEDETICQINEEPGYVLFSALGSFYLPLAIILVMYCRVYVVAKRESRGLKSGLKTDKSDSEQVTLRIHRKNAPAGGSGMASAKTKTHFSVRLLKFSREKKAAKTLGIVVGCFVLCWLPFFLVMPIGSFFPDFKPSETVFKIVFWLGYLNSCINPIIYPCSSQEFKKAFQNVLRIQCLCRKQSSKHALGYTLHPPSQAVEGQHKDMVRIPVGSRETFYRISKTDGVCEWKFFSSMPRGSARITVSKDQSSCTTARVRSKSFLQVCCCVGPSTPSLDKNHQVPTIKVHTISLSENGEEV
The series is described as follows: Agonist activity at adrenergic alpha-1A receptor (unknown origin) expressed in cells assessed as change in fluorescence measured after 24 hrs by FLIPR assay. The format is functional, cell-based.

For another series, the target named is D(1A) dopamine receptor (Homo sapiens, UniProt P21728). The series can be described thus: Agonist activity at dopamine D1 receptor (unknown origin) expressed in cells assessed as change in fluorescence measured after 24 hrs by FLIPR assay. The format is functional, cell-based.
In series [20] the target is 5-hydroxytryptamine receptor 2B (Homo sapiens, UniProt P41595). The series can be described thus: Agonist activity at serotonin 2B receptor (unknown origin) expressed in cells assessed as change in fluorescence measured after 24 hrs by FLIPR assay. The format is functional, cell-based.
Series [21] can be described thus: Cytotoxicity against human THLE cells by ATP depletion assay. The format is cell-based.
In series [22] the target is Sodium-dependent dopamine transporter (Homo sapiens) (UniProt Q01959). The series can be described thus: Inhibition of dopamine transporter (unknown origin) expressed in cells incubated for 60 mins by amine transporter assay. The format is cell-based.
Series [23] addresses Beta-2 adrenergic receptor (Homo sapiens, UniProt P07550). The series is described as follows: Agonist activity at adrenergic beta2 receptor (unknown origin) expressed in cells measured after 90 mins by beta-arrestin recruitment assay. The format is functional, cell-based.

Values after ≈ are worked out from the molar mass of the structure shown. Bounds are passed on as bounds.

The term EC50 denotes the concentration at which the effect is half-maximal. Broadly, the Emax is the size of the effect at its maximum, as opposed to the concentration needed. As a reminder, the IC50 is the concentration that gives 50% inhibition. The Ki is a measure of affinity in units of concentration, obtained from inhibition or displacement. Broadly, the solubility is the concentration that dissolves in the medium under given conditions. In general, logD refers to lipophilicity at a set pH, counting ionised and neutral species. A high value points to a more lipophilic compound. Usually Papp stands for a coefficient for how fast a substance crosses the barrier.

Chain of Proprotein convertase subtilisin/kexin type 9 (Q8NBP7 31-152 limits assumed): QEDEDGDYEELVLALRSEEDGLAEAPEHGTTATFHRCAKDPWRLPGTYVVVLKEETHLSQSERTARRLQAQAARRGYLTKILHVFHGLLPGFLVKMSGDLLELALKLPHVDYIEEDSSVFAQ
Chain of Proprotein convertase subtilisin/kexin type 9 (Q8NBP7 153-692 limits assumed): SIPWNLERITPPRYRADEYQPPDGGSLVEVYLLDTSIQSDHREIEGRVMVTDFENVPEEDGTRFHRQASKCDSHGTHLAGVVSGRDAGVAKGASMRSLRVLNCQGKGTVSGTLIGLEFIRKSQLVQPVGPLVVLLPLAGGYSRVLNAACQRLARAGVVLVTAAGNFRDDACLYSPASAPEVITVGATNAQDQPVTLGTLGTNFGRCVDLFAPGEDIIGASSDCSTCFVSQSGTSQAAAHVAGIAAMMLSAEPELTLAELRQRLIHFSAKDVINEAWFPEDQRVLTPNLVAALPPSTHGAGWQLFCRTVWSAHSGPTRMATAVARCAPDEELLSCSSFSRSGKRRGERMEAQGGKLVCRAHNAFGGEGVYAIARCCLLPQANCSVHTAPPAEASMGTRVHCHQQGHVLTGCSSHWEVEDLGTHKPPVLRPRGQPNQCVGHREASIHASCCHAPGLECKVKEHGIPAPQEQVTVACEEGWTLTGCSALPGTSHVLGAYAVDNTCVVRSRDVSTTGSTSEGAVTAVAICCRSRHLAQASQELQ
T1 sequence (Q12809 whole entry): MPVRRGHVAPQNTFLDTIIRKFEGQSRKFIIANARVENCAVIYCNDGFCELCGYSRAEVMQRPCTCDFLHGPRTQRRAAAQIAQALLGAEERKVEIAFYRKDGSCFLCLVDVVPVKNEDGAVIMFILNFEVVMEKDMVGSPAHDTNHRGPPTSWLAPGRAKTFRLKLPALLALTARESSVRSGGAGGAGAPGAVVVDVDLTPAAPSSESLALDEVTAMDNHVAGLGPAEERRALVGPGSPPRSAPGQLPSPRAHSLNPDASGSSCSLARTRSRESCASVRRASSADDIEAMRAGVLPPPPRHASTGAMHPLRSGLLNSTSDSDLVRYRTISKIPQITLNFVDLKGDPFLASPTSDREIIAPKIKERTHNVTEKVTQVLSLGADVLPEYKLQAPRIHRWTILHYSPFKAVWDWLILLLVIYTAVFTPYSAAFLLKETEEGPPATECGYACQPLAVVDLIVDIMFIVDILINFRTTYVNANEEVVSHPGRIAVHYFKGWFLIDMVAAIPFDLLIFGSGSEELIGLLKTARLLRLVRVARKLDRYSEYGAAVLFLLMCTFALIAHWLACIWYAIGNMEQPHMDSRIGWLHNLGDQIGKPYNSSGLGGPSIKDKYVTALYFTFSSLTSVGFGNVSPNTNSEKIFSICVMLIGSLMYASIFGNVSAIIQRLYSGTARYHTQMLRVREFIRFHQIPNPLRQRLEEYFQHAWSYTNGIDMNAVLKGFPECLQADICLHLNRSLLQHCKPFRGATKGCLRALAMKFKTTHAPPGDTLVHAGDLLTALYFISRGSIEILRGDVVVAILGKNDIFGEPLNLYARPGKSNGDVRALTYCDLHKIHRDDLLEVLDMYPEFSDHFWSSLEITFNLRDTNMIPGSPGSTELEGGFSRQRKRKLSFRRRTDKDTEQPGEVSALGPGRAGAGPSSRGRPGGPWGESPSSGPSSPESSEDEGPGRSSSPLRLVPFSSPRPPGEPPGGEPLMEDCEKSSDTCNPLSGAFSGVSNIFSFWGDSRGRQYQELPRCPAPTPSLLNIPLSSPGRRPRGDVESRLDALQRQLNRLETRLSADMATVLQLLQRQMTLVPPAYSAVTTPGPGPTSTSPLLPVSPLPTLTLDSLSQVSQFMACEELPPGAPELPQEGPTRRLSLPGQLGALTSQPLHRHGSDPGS
Chain of Sodium-dependent dopamine transporter (Homo sapiens) (Q01959 whole entry): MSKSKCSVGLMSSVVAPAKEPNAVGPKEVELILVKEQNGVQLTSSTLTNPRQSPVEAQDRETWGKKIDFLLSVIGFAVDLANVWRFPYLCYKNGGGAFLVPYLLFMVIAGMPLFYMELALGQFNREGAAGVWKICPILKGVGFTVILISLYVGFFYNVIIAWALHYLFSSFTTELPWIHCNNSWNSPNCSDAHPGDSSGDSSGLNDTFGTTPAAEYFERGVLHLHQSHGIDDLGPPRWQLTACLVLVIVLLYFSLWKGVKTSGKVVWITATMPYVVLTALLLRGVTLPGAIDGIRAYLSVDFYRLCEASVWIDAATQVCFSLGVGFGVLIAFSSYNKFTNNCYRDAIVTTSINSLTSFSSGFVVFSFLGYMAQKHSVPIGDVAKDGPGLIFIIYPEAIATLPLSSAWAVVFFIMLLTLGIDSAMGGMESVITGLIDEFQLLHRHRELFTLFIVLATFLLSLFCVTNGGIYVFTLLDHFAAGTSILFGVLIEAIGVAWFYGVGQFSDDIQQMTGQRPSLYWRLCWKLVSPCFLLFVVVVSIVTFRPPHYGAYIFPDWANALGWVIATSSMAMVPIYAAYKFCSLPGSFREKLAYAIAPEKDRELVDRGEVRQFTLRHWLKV
Chain of Cannabinoid receptor 1 (P21554 whole entry): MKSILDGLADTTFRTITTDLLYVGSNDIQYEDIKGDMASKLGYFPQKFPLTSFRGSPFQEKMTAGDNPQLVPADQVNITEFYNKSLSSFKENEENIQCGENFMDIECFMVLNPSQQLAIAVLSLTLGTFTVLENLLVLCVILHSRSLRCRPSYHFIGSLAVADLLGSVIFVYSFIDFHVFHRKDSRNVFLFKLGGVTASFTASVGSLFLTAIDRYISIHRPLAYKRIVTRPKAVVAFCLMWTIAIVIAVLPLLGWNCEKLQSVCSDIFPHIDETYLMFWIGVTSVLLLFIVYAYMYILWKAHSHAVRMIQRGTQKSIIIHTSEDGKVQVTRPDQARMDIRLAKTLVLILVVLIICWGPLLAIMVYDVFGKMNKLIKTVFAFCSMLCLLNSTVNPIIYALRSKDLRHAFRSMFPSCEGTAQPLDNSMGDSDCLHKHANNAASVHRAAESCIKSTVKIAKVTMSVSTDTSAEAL
Chain of Sodium-dependent noradrenaline transporter (Homo sapiens) (P23975 whole entry): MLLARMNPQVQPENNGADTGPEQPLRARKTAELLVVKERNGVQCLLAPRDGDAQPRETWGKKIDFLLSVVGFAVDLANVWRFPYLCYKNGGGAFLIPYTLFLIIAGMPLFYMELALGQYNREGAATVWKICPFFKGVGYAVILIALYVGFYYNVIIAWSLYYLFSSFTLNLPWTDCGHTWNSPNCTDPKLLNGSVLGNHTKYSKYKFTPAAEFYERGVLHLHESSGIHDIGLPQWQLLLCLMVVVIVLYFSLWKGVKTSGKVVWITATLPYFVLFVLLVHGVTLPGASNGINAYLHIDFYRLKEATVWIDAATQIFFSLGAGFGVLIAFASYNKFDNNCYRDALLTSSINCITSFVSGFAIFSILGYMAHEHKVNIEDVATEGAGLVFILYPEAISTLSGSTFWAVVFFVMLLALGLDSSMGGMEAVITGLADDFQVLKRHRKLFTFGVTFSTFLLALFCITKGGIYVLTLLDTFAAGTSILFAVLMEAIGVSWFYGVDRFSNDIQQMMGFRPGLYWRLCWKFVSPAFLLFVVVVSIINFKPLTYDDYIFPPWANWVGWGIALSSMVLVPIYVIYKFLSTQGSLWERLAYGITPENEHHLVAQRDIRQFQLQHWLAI
Chain of Histamine H1 receptor (P35367 whole entry): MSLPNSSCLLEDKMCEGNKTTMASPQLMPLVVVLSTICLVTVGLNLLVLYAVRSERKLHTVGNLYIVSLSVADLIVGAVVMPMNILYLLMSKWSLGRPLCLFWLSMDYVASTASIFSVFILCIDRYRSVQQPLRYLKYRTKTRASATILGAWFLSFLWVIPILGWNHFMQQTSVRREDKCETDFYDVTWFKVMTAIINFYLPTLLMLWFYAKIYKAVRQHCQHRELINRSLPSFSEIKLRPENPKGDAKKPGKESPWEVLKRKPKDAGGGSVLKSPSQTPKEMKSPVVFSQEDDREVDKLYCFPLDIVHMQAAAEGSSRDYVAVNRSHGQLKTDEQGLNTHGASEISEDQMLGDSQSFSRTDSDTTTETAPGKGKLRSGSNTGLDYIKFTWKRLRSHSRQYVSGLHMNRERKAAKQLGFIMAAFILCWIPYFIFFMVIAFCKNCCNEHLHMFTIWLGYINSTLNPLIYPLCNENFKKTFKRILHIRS
Chain of D(1A) dopamine receptor (P21728 whole entry): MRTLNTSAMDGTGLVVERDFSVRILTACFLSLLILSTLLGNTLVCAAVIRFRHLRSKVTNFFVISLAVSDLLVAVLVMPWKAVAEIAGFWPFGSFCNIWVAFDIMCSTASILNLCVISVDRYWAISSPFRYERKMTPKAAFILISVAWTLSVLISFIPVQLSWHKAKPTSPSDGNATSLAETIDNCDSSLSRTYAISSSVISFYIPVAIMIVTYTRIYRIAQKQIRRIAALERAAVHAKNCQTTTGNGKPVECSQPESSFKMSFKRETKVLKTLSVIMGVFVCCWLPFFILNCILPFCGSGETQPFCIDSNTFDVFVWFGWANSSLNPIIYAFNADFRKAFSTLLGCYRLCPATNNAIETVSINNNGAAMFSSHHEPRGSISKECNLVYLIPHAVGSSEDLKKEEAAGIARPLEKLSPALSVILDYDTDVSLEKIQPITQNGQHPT
Chain of Beta-2 adrenergic receptor (P07550 whole entry): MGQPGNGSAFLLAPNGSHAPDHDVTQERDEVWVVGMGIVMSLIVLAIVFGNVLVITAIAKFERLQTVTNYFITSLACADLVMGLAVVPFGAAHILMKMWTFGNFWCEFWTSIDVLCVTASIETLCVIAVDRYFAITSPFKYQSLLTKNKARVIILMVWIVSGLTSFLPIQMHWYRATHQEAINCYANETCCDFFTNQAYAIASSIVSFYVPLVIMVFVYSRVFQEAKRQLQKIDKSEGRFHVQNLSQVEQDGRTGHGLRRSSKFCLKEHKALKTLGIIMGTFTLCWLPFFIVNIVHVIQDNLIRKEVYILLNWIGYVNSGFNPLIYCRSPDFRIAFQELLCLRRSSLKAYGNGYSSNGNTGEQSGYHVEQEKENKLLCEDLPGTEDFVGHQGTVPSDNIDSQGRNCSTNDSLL

With `O=C(c1ccc(-n2nnc3cccnc32)cc1)N(c1ncccc1Cl)[C@@H]1CCCNC1`, the figures for the EC50 in [1] and in [2] were more than 10 µM and 4.5 µM, respectively. Further, the Emax in the series with K562 turned out to be 100%.
With `CNc1cncc(-c2ccc(C(=O)N(c3ncccc3Cl)[C@@H]3CCCNC3)cc2)n1`, the Emax is -25% in series [3] and 100% in the series on K562. The EC50 in series [1] was more than 10 µM; in series [2] it was 5.6 µM; with THP-1 it was more than 10 µM; in series [4], more than 10 µM; in series [5] it was 6 µM. The compound also showed an IC50 in [6] of 3.1 µM.
As for `O=C(c1ccc(-c2cnn3cccnc23)cc1)N(c1nccc2ccccc12)[C@@H]1CCCNC1`, the results for the 50% effective concentration (EC50) in [1] and in series [2] were more than 10 µM and 0.58 µM, respectively. Besides, the Emax with K562 came out at 206%. The IC50 in series [6] was 1.3 µM.
For the compound `Cc1cnc2c(-c3ccc(C(=O)N(c4ncccc4C)[C@@H]4CCCNC4)cc3F)cnn2c1`, the Emax in [3] was -43%; with K562 it was 100%. The IC50 in series [7] is 39 µM; in series [10] it was 99 µM; in series [12] it was more than 25 µM; in series [18] it was more than 200 µM; in [21], 204 µM; in series [6] it was 1.7 µM. The EC50 is more than 10 µM in series [1]; 7.8 µM in series [2]; more than 10 µM in the series on THP-1; more than 10 µM at Cannabinoid receptor 1; more than 10 µM in series [4]; 2.1 µM in [5]. For the same compound, the EC50 at Histamine H1 receptor was more than 10 µM; in series [17] it was 12.7 µM; in series [19], more than 10 µM; at D(1A) dopamine receptor, more than 10 µM; in [20], more than 10 µM; in [23] it was more than 10 µM. The figures for the Ki in [8] and in series [14] were 7.2 µM and 0.4 µM, respectively. The same compound returned a solubility in series [9] of 460 µM (≈ 204 µg/mL). The Kb in [11], in [16] and in series [22] was more than 10 µM in each case. In addition, in [13], the logD worked out at 1.1. Moreover, the Papp in series [15] came to 10.1 ×10⁻⁶ cm/s.
With `Cc1cnc2c(c1)nnn2-c1ccc(C(=O)N(c2ncccc2Cl)[C@@H]2CCCNC2)cc1`, the results for the EC50 in series [1] and in [2] were more than 10 µM and 1.4 µM, respectively. Also, in the series with K562, the Emax was 80%.
On to `Cc1ccc2nnn(-c3ccc(C(=O)N(c4ncccc4Cl)[C@@H]4CCCNC4)cc3)c2n1`, for which the EC50 in [1] is more than 25 µM; in series [2] it was 4.4 µM. Besides, in the series with K562, the Emax was determined as 155%. In series [6], this compound had a half-inhibitory concentration (IC50) of 0.9 µM.
For `COC(=O)c1c(-c2ccc(C(=O)N(c3ncccc3C)[C@@H]3CCCNC3)cc2)cnn1C`, the Emax in series [3] is -35%; in the series on K562, 220%. Besides, the EC50 in series [1] is more than 10 µM; in [2] it was 3.6 µM; in the series on THP-1, more than 50 µM; in series [4], more than 50 µM; in [5] it was 8.3 µM. For the same compound, the IC50 in [6] was found to be 2.5 µM.
As for `Cc1cncc(-c2ccc(C(=O)N(c3ncccc3Cl)[C@@H]3CCCNC3)cc2)n1`, in series [3], the Emax is -32%. The EC50 in [1] was more than 10 µM; in series [2], more than 10 µM; with THP-1, more than 30 µM; in series [4], more than 30 µM; in series [5] it was more than 30 µM. Besides, the IC50 in series [6] came to 2.8 µM.
As for `CN(C)c1cncc(-c2ccc(C(=O)N(c3ncccc3Cl)[C@@H]3CCCNC3)cc2)n1`, in series [3], the Emax is -41%. The EC50 is more than 10 µM in [1]; more than 10 µM in [2]; more than 50 µM in the series on THP-1; more than 50 µM in [4]; 39 µM in series [5]. For the same compound, the IC50 in [6] amounted to 3 µM.
Turning to `Cc1cccnc1N(C(=O)c1ccc(-c2cnn3cccnc23)cc1)[C@@H]1CCCNC1`, the Emax was -41% in series [3] and 145% in the series on K562. For the same compound, the half-maximal effective concentration (EC50) in [1] was more than 10 µM; in series [2], 3.7 µM; in the series on THP-1 it was more than 50 µM; in series [4] it was more than 50 µM; in series [5], 33 µM. In series [6], half-maximal inhibition (IC50) was put at 2.2 µM.
